Data: the supplement of paper PMC10307832

Assays:
Experiment in all cases: relative viability (nuclei count vs DMSO), 5 days (fraction); higher = more cells survive
NCI-H1975 = system: NCI-H1975
Procedure, shortened: (§1)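 Medians of duplicate plates are given as relative viability. That measure is the nuclei count in treated wells divided by the count in vehicle wells. Counts were taken on 4× images of lung cancer cell lines in 1536-well plates, 5 days after pin-tool dosing the day after seeding with one drug alone or a fixed anchor-drug dose plus five library-drug doses (not always all listed) in √10 steps.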

LCLC-103H = system: LCLC-103H
Procedure, shortened: as §1

NCI-H727 = system: NCI-H727
Procedure, shortened: as §1

UMC-11 = system: UMC-11
Procedure, shortened: as §1

EPLC-272H = system: EPLC-272H
Procedure, shortened: as §1

NCI-H1437 = system: NCI-H1437
Procedure, shortened: as §1

NCI-H358 = system: NCI-H358
Procedure, shortened: as §1

HCC-366 = system: HCC-366
Procedure, shortened: as §1

NCI-H1944 = system: NCI-H1944
Procedure, shortened: as §1

NCI-H2023 = system: NCI-H2023
Procedure, shortened: as §1

HARA = system: HARA
Procedure, shortened: as §1

HCC-78 = system: HCC-78
Procedure, shortened: as §1

NCI-H2405 = system: NCI-H2405
Procedure, shortened: as §1

NCI-H1395 = system: NCI-H1395
Procedure, shortened: as §1

HCC-827 = system: HCC-827
Procedure, shortened: as §1

COR-L23 = system: COR-L23
Procedure, shortened: as §1

COR-L 105 = system: COR-L 105
Procedure, shortened: as §1

HCC-44 = system: HCC-44
Procedure, shortened: as §1

NCI-H2085 = system: NCI-H2085
Procedure, shortened: as §1

SK-LU-1 = system: SK-LU-1
Procedure, shortened: as §1

NCI-H661 = system: NCI-H661
Procedure, shortened: as §1

HCC-15 = system: HCC-15
Procedure, shortened: as §1

## Cc1cnc(-c2cnc(NCCNc3ccc(C#N)cn3)nc2-c2ccc(Cl)cc2Cl)[nH]1 + Cc1cc(Nc2cc(N3CCN(C)CC3)nc(Sc3ccc(NC(=O)C4CC4)cc3)n2)n[nH]1 [Tozasertib] (partner 0.1 µM)
NCI-H1975; first compound 0.08 µM
  relative viability: 0.717
NCI-H1975; first compound 0.253 µM
  relative viability: 0.659
NCI-H1975; first compound 0.8 µM
  relative viability: 0.508
NCI-H1975; first compound 2.53 µM
  relative viability: 0.132
LCLC-103H; first compound 0.08 µM
  relative viability: 0.503
LCLC-103H; first compound 0.253 µM
  relative viability: 0.417
LCLC-103H; first compound 0.8 µM
  relative viability: 0.429
LCLC-103H; first compound 2.53 µM
  relative viability: 0.426
NCI-H727; first compound 0.08 µM
  relative viability: 0.639
NCI-H727; first compound 0.253 µM
  relative viability: 0.497
NCI-H727; first compound 0.8 µM
  relative viability: 0.603
NCI-H727; first compound 2.53 µM
  relative viability: 0.422
UMC-11; first compound 0.08 µM
  relative viability: 0.19
UMC-11; first compound 0.253 µM
  relative viability: 0.191
UMC-11; first compound 0.8 µM
  relative viability: 0.227
UMC-11; first compound 2.53 µM
  relative viability: 0.213
EPLC-272H; first compound 0.08 µM
  relative viability: 0.321
EPLC-272H; first compound 0.253 µM
  relative viability: 0.255
EPLC-272H; first compound 0.8 µM
  relative viability: 0.249
EPLC-272H; first compound 2.53 µM
  relative viability: 0.197
NCI-H1437; first compound 0.08 µM
  relative viability: 0.456
NCI-H1437; first compound 0.253 µM
  relative viability: 0.444
NCI-H1437; first compound 0.8 µM
  relative viability: 0.431
NCI-H1437; first compound 2.53 µM
  relative viability: 0.371
NCI-H358; first compound 0.08 µM
  relative viability: 0.101
NCI-H358; first compound 0.253 µM
  relative viability: 0.0983
NCI-H358; first compound 0.8 µM
  relative viability: 0.137
NCI-H358; first compound 2.53 µM
  relative viability: 0.11
HCC-366; first compound 0.08 µM
  relative viability: 0.0773
HCC-366; first compound 0.253 µM
  relative viability: 0.0701
HCC-366; first compound 0.8 µM
  relative viability: 0.071
HCC-366; first compound 2.53 µM
  relative viability: 0.0493
NCI-H1944; first compound 0.08 µM
  relative viability: 0.253
NCI-H1944; first compound 0.8 µM
  relative viability: 0.254
NCI-H1944; first compound 2.53 µM
  relative viability: 0.252
NCI-H2023; first compound 0.08 µM
  relative viability: 0.353
NCI-H2023; first compound 0.253 µM
  relative viability: 0.362
NCI-H2023; first compound 0.8 µM
  relative viability: 0.325
NCI-H2023; first compound 2.53 µM
  relative viability: 0.181
HARA; first compound 0.08 µM
  relative viability: 0.116
HARA; first compound 0.253 µM
  relative viability: 0.113
HARA; first compound 0.8 µM
  relative viability: 0.116
HARA; first compound 2.53 µM
  relative viability: 0.1
HCC-78; first compound 0.08 µM
  relative viability: 0.482
HCC-78; first compound 0.253 µM
  relative viability: 0.311
HCC-78; first compound 0.8 µM
  relative viability: 0.428
HCC-78; first compound 2.53 µM
  relative viability: 0.384
NCI-H2405; first compound 0.08 µM
  relative viability: 0.764
NCI-H2405; first compound 0.253 µM
  relative viability: 0.697
NCI-H2405; first compound 0.8 µM
  relative viability: 0.714
NCI-H2405; first compound 2.53 µM
  relative viability: 0.505
NCI-H1395; first compound 0.08 µM
  relative viability: 0.778
NCI-H1395; first compound 0.253 µM
  relative viability: 0.856
NCI-H1395; first compound 0.8 µM
  relative viability: 0.872
NCI-H1395; first compound 2.53 µM
  relative viability: 0.756
HCC-827; first compound 0.08 µM
  relative viability: 0.432
HCC-827; first compound 0.8 µM
  relative viability: 0.44
HCC-827; first compound 2.53 µM
  relative viability: 0.407
COR-L23; first compound 0.08 µM
  relative viability: 0.205
COR-L23; first compound 0.253 µM
  relative viability: 0.181
COR-L23; first compound 0.8 µM
  relative viability: 0.164
COR-L23; first compound 2.53 µM
  relative viability: 0.109
COR-L 105; first compound 0.08 µM
  relative viability: 0.349
COR-L 105; first compound 0.253 µM
  relative viability: 0.327
COR-L 105; first compound 0.8 µM
  relative viability: 0.346
COR-L 105; first compound 2.53 µM
  relative viability: 0.298
HCC-44; first compound 0.08 µM
  relative viability: 1.04
HCC-44; first compound 0.253 µM
  relative viability: 0.746
HCC-44; first compound 0.8 µM
  relative viability: 0.676
HCC-44; first compound 2.53 µM
  relative viability: 0.781
NCI-H2085; first compound 0.08 µM
  relative viability: 0.886
NCI-H2085; first compound 0.253 µM
  relative viability: 0.684
NCI-H2085; first compound 0.8 µM
  relative viability: 0.56
NCI-H2085; first compound 2.53 µM
  relative viability: 0.469
SK-LU-1; first compound 0.08 µM
  relative viability: 0.314
SK-LU-1; first compound 0.253 µM
  relative viability: 0.348
SK-LU-1; first compound 0.8 µM
  relative viability: 0.426
SK-LU-1; first compound 2.53 µM
  relative viability: 0.535
NCI-H661; first compound 0.08 µM
  relative viability: 0.361
NCI-H661; first compound 0.253 µM
  relative viability: 0.378
NCI-H661; first compound 0.8 µM
  relative viability: 0.363
NCI-H661; first compound 2.53 µM
  relative viability: 0.341
HCC-15; first compound 0.08 µM
  relative viability: 0.346
HCC-15; first compound 0.253 µM
  relative viability: 0.373
HCC-15; first compound 0.8 µM
  relative viability: 0.473
HCC-15; first compound 2.53 µM
  relative viability: 0.279
